Measured values from US9394549B2, “Method for producing useful chemical substance from terephthalic acid potassium salt” (GENARIS, INC., priority 2012, dated 2016).
Like-named read-outs stand apart in the source and are kept apart here.

Experiments:
[1] = Solubility of terephthalic acid salts in water; format: physicochemical
Description: 2.99 g (0.018 mol) of terephthalic acid (in a form of powder, manufactured by Sigma-Aldrich Japan; hereinafter, unless otherwise specified, reagents used were ones manufactured by Sigma-Aldrich Japan) and 0.036 mol of potassium hydroxide (in a form of granule) were put in a 50 mL-glass beaker. Distilled water was filled to obtain a volume of about 15 mL. The resulting mixture was covered with aluminum foil as a lid, heated at 50° C. for 60 minutes while stirred by a hot stirrer (manufactured by AS ONE Corporation), and allowed to cool to 30° C. After stirring at 30° C. for 120 minutes or more and confirming the precipitate remained in the solution, 1 mL of the solution was collected and subjected to centrifugation using a high speed micro centrifuge (manufactured by Tomy Seiko Co., Ltd.) (30° C., 14000 rpm (17800 g), 30 seconds) to collect the supernatant.
The concentration of terephthalic acid in this supernatant was measured and regarded as the solubility of dipotassium terephthalate. With regard to the measurement of the concentration of terephthalic acid, the sample was diluted 16,000-fold with 2.5% aqueous acetonitrile solution and analyzed in separation conditions of Table 1 using high performance liquid chromatography (Waters Corporation, LCT Premier XE). Thereafter, the concentration was calculated on the basis of a ratio of the area of terephthalic acid peaks using aqueous terephthalic acid solution with a known concentration as a control.

[2] = test system: recombinant Escherichia coli strain M7032 (pUXPEaLT_tphA2A3A1_tpaK); test: Production of TPA-DHD from terephthalic acid salt in jar fermentor culture; format: cell-based; settings: for Ratio of the capacity in production (TPA-DHD): disodium terephthalate as 100%
Description: Based on the results of Example 1, on the basis of terephthalic acid, potassium hydroxide, sodium hydroxide, 28% ammonium solution and distilled water, 0.6 M dipotassium terephthalate aqueous solution, 0.6 M 1-potassium 4-sodium terephthalate aqueous solution, 0.6 M 1-potassium 4-ammonium terephthalate aqueous solution, and 0.6 M disodium terephthalate aqueous solution were prepared 500 mL each. 30 ml of these terephthalic acid salt solutions and 7 g of glucose were mixed to prepare a glucose and substrate mixed solution.
A TPA-DHD production plasmid pUXPEaLT_tphA2A3A1_tpaK constructed in Reference Example 3 was introduced into Escherichia coli M7032 strain (obtained from CGSC of Yale University) by a transformation method to obtain a recombinant Escherichia coli strain M7032 (pUXPEaLT_tphA2A3A1_tpaK).
This transformant was cultured in 1 ml of LB liquid medium (10 g/l tryptone (manufactured by Difco), 5 g/l dried yeast extract (manufactured by Difco), 10 g/l sodium chloride) containing ampicillin at a final concentration of 100 mg/1 overnight. Next, merely 1% of this overnight culture was inoculated in 10 ml of F6.6W/P100/G2 medium containing ampicillin at a final concentration of 100 mg/I and cultured at 30° C. for 24 hours.
Next, in order to carry out main culture based on this preculture, 65 ml of F6.6W/P10/G1 medium which is a main culture medium was put in an octuple mini jar fermentor (manufactured by ABLE Corporation) and adjusted to 30.2° C.±0.2 and pH 6.9±0.1.
The aeration condition of the jar fermentor culture was adjusted to 1 vvm and the adjustment of the pH of the culture was carried out using an ammonium solution and sulfuric acid. Further, dissolved oxygen in the culture solution was regulated as a saturated oxygen concentration of 100% and controlled with the revolution of stirring blade such that the dissolved oxygen is maintained at 15%, which dissolved oxygen decreasing as bacterial cells grow.
In a main culture medium, 0.1% of preculture was inoculated and cultured in the above condition. When the bacterial cell turbidity reached about 7 at an absorbance of 600 nm, an inducer, m-toluic acid was added such that the final concentration thereof was 1 mM to express a terephthalate 1,2-dioxygenase protein, terephthalate 1,2-dioxygenase reductase protein, and terephthalic acid transporter protein. The glucose concentration was measured with time. When the glucose concentration reached 0, the glucose and substrate mixed solution was administered.
Each of the samples was subjected to analysis in conditions shown in Table 1 by an LC-TOF type mass spectrometer (Waters Corporation, LCT Premier XE). Identification of terephthalic acid was carried out with a combination of retention time of high performance liquid chromatography and an accurate mass value from the mass spectrometer, comparing to a standard sample of terephthalic acid. Among substances appeared as terephthalic acid decreased, TPA-DHD was identified on the basis of a predicted accurate mass value of TPA-DHD. Further, quantification of TPA-DHD was carried out on the basis of a calibration curve prepared from an amount of terephthalic acid decreased and an increase in the peak area of TPA-DHD.
First, 0.6 M dipotassium terephthalate aqueous solution and 0.6 M disodium terephthalate aqueous solution, both of which were prepared in Example 2, were mixed at a ratio of 0:100, 20:80, 25:75, 30:70, 35:65, and 50:50 to prepare each aqueous solution of the terephthalic acid salts. These terephthalic acid salt solutions 30 ml and glucose 7 g were mixed to obtain glucose and substrate mixed solutions.
Using these glucose and substrate mixed solutions, the capacity of recombinant Escherichia coli strain M7032 (pUXPEaLT_tphA2A3A1_tpaK) in production of TPA-DHD was examined by the same method as the method of Example 2. […]

[3] = test system: gallic acid-producing Escherichia coli strain M7032 (pUXPEaLT_HFM145_tphA2A3BA1_tpaK); test: Production of gallic acid from terephthalic acid salt in jar fermentor culture; format: cell-based; settings: for Gallic acid: 0.6 M salt solution as raw material, 48 hours after the start of the main culture; for Ratio of the capacity in production (gallic acid): 48 hours, disodium terephthalate as 100%
Description: A gallic acid plasmid pUXPEaLT_HFM145_tphA2A3BA1_tpaK constructed in Reference Example 2 was introduced into Escherichia coli M7032 strain by a transformation method to obtain a gallic acid-producing Escherichia coli strain M7032 (pUXPEaLT_HFM145_tphA2A3BA1_tpaK). Subsequently, in the same manner as described in Example 2, the preculture of this gallic acid-producing bacterium was prepared and then merely 2% of this preculture was inoculated in a main culture medium to carry out main culture in the above condition. When the bacterial cell turbidity reached about 7 at an absorbance of 600 nm, an inducer m-toluic acid was added such that the final concentration thereof came to 1 mM to express terephthalate 1,2-dioxygenase protein, terephthalate 1,2-dioxygenase reductase protein, terephthalate dihydrodiol dehydrogenase protein, terephthalic acid transporter protein and improved para-hydroxybenzoate hydroxylase. The glucose concentration was measured with time. When the glucose concentration reached 0, the glucose and substrate mixed solution was administered.
Sampling was carried out 48 hours after the start of the main culture. Each of the samples was subjected to analysis by an LC-TOF type mass spectrometer (Waters Corporation, LCT Premier XE). Identification of gallic acid and protocatechuic acid was carried out with a combination of retention time of high performance liquid chromatography and an accurate mass value from the mass spectrometer, comparing to a standard sample of terephthalic acid and gallic acid.

[4] = 0.6 M salt solution as raw material, 48 hours after the start of the main culture
[5] = 30 °C, water, thermodynamic from solid, in water at 30° C., rounded values of the summary, read-out: solubility in water at 30° C.
[6] = 30 °C, water, thermodynamic from solid, in water, 30° C., read-out: Solubility
[7] = salt from PET in 1-butanol, 35 hours
[8] = salt obtained by depolymerization of PET in 1-butanol (Example 9), 0.6M, 35 hours
[9] = salt obtained by depolymerization of PTT (Example 7), 0.6M, 48 hours

Row | SMILES | solubility [1] [mM] | solubility in water at 30° C. [1] | TPA-DHD [2, 4] [g/L] | Ratio of the capacity in production (TPA-DHD) ([2]; 48 hours) [%] | Gallic acid [3] [g/L] | Ratio of the capacity in production (gallic acid) [3] [%] | solubility [1, 5] [mM] | solubility [1, 6] [mM] | Ratio of the capacity in production (TPA-DHD) [2, 7] [%] | Ratio of the capacity in production (TPA-DHD) ([2]; salt from PTT, 48 hours) [%] | TPA-DHD [2, 8] [g/L] | TPA-DHD [2, 9] [g/L]
1 | N.O=C([O-])c1ccc(C(=O)O)cc1.[K+] [1-potassium 4-ammonium terephthalate] | 845 | about 0.85 M | 12.2 | 126 | 8.5 | 112 |  |  |  |  |  | 
2 | O=C([O-])c1ccc(C(=O)[O-])cc1.[Na+].[Na+] [Disodium terephthalate, disodium terephthalate, reference compound] |  |  | 9.7 | 100 | 7.6 | 100 | ~630 | 630 | 100 | 100 | 12.8 | 12.8
3 | O=C([O-])c1ccc(C(=O)[O-])cc1.[K+].[K+] [Dipotassium terephthalate, dipotassium terephthalate] |  |  | 11.3 | 116 | 8.6 | 113 | ~1000 | 1010 | 136 | 138 | 17.4 | 17.7
4 | O=C([O-])c1ccc(C(=O)[O-])cc1.[K+].[Na+] [1-potassium 4-sodium terephthalate] | 956 | about 0.96 M | 10.7 | 110 | 8.4 | 111 |  |  | 116 | 112 | 14.8 | 14.3
